Data from patent US20260137773A1 (priority 2022, published 2026).

Key:
[1] = healthy volunteers; cited from earlier work
[2] = test system: 4T1 mouse mammary gland carcinoma; type: in vivo; conditions: data not shown
complement activation = conditions: higher than Factor H; cited from earlier work

Molecule: CC[C@H](C(=O)N1CCCC[C@H]1C(=O)O[C@H](CCc1ccc(OC)c(OC)c1)c1cccc(OCC(=O)NCCNC(=O)COc2cccc([C@@H](CCc3ccc(OC)c(OC)c3)OC(=O)[C@@H]3CCCCN3C(=O)[C@@H](CC)c3cc(OC)c(OC)c(OC)c3)c2)c1)c1cc(OC)c(OC)c(OC)c1 [AP1903]
- safety [1]: proven safe

Molecule: Versikine
- tumor size, Versikine assessed alone [2]: did not significantly reduced tumor size

B1: miniFH (protein)
chain: EDCNELPPRRNTEILTGSWSDQTYPEGTQAIYKCRPGYRSLGNVIMVCRKGEWVALNPLRKCQKRPCGHPGDTPFGTFTLTGGNVFEYGVKAVYTCNEGYQLLGEINYRECDTDGWTNDIPICEVVKCLPVTAPENGKIVSSAMEPDREYHFGQAVRFVCNSGYKIEGDEEMHCSDDGFWSKEKPKCVEISCKSPDVINGSPISQKIIYKENERFQYKCNMGYEYSERGDAVCTESGWRPLPSCEEKSCDNPYIPNGDYSPLRIKHRTGDEITYQCRNGFYPATRGNTAKCTSTGWIPAPRCTSGSGGGGVDTTSCVNPPTVQNAYIVSRQMSKYPSGERVRYQCRSPYEMFGDEEVMCLNGNWTEPPQCKDSTGKCGPPPPIDNGDITSFPLSVYAPASSVEYQCQNLYQLEGNKRITCRNGQWSEPPKCLHPCVISREIMENYNIALRWTAKQKLYSRTGESVEFVCKRGYRLSSRSHTLRTTCWDGKLEYPTCAKR
modifications: REGION 1..499: note = miniFH POLYPEPTIDE
- ex vivo potency to inhibit complement activation compared with FH (complement activation): ~10 fold
